According to ChEMBL document CHEMBL1136157, “Synthesis of 3a,4-dihydro-3H-[1]benzopyrano[4,3-c]isoxazoles, displaying combined 5-HT uptake inhibiting and alpha(2)-adrenoceptor antagonistic activities: a novel series of potential antidepressants” (Bioorg Med Chem Lett, 2003):
pKi: −log10 of the molar value.

Biological target: Sodium-dependent serotonin transporter (Homo sapiens) (UniProt P31645)
Assay: In vitro binding affinity towards human serotonin transporter

Sodium-dependent serotonin transporter (Homo sapiens), sequence (P31645 whole entry, looked up): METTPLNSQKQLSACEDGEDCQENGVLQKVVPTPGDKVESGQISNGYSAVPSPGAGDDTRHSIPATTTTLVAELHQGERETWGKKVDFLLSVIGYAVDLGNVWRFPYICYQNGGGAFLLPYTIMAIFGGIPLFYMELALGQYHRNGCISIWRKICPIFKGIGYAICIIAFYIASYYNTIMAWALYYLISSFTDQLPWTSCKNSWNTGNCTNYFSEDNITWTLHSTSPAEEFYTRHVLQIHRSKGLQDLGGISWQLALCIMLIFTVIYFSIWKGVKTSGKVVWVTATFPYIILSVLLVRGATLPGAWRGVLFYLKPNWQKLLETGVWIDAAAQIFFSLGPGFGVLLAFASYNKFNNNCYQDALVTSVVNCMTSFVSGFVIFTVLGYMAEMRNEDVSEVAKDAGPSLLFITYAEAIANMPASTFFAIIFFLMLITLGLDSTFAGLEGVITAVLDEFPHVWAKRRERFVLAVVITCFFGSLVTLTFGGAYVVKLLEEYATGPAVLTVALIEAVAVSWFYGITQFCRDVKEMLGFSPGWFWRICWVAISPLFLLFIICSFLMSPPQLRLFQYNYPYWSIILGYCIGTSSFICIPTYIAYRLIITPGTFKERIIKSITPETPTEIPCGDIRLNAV

Structure (SMILES) | pKi
COc1cc2c(cc1OC)C1=NOC(CN3CCN(C/C=C(\C)c4ccccc4)CC3)C1CO2 (centres undefined) | 8.00
COc1cc2c(cc1OC)C1=NOC(CN3CCN(CC4=Cc5ccccc5C4)CC3)C1CO2 (centres undefined) | 8.39
COc1cc2c(cc1OC)C1=NOC(CN3CCN(CCC(=O)c4ccccc4)CC3)C1CO2 (centres undefined) | 6.91
COc1cc2c(cc1OC)C1=NO[C@@H](CN3CCN(C/C=C\c4ccccc4)CC3)[C@@H]1CO2 | 7.46
COc1ccc2c(c1)C1=NOC(CN3CCN(C/C=C/c4ccccc4)CC3)C1CO2 (centres undefined) | 7.85
COc1ccc2c(c1)OCC1C2=NOC1CN1CCN(C/C=C/c2ccccc2)CC1 (centres undefined) | 7.72
COc1cc2c(cc1OC)C1=NOC(CN3CCN(CCCc4ccccc4)CC3)C1CO2 (centres undefined) | 8.00
COc1cc2c(cc1OC)C1=NOC(CN3CCN(Cc4ccccc4)CC3)C1CO2 (centres undefined) | 6.80
COc1cc2c(cc1OC)C1=NOC(CN3CCN(Cc4ccc5ncccc5c4)CC3)C1CO2 (centres undefined) | 8.09
COc1cc2c(cc1OC)C1=NOC(CN3CCN(Cc4cccc5ccccc45)CC3)C1CO2 (centres undefined) | 8.41
COc1cc2c(cc1OC)C1=NOC(CN3CCN(Cc4cnc5ccccc5c4)CC3)C1CO2 (centres undefined) | 7.85
COc1cc2c(cc1OC)C1=NOC(CN3CCN(CCc4ccccc4)CC3)C1CO2 (centres undefined) | 6.70
COc1cc2c(cc1OC)C1=NOC(CN3CCN(C/C=C/c4ccccc4)CC3)C1CO2 (centres undefined) | 8.08
COc1cc2c(cc1OC)C1=NOC(CN3CCN(Cc4csc5ccccc45)CC3)C1CO2 (centres undefined) | 8.14
COc1cc2c(cc1OC)C1=NOC(CN3CCN(Cc4cc5ccccc5s4)CC3)C1CO2 (centres undefined) | 8.30
COc1cc2c(cc1OC)C1=NO[C@@H](CN3CCN(C/C=C/c4ccccc4)CC3)[C@@H]1CO2 (stereo in doubt; (+)5) | 8.92
COc1cc2c(cc1OC)C1=NO[C@@H](CN3CCN(C/C=C(\C)c4ccccc4)CC3)[C@@H]1CO2 (stereo in doubt; (+)15g) | 8.35
COc1cc2c(cc1OC)C1=NO[C@@H](CN3CCN(C/C=C/c4ccccc4)CC3)[C@@H]1CO2 (stereo in doubt; (-)5) | 8.47
COc1cc2c(cc1OC)C1=NO[C@@H](CN3CCN(C/C=C(\C)c4ccccc4)CC3)[C@@H]1CO2 (stereo in doubt; (-)15g) | 8.00
